The results in this text go back to patent US20070078057A1, “Microemulsion formulation” (priority 2005, published 2007).

The series in a line: Maximum concentration of ingredient incorporated into the microemulsion. Format: physicochemical. Particulars: incorporated into the microemulsion formulation of Table 28.
With `CCCCCC` [Hexane], the “Approximate Maximum Concentration” value came out at 2.0.

In the case of `C[C@]12C=CC(=O)C=C1CC[C@@H]1[C@@H]2C(=O)C[C@@]2(C)[C@H]1CC[C@]2(O)C(=O)CO` [Prednisone, reference compound], the “Approximate Maximum Concentration” value amounted to 0.5. `Cc1ccccc1` [Toluene]: the “Approximate Maximum Concentration” value was 2.0.

Consider `CC(=O)Oc1c(C)c(C)c2c(c1C)CCC(C)(CCC[C@H](C)CCC[C@H](C)CCCC(C)C)O2` (stereo partly drawn) [Vitamin E, α-Tocopherol acetate, reference compound], for which the “Approximate Maximum Concentration” value worked out at 1.0.

As for Xylene, the “Approximate Maximum Concentration” value was found to be 5.0.
